Assay results as given in patent US5840911A, “Imidazole derivatives, their preparation and their use as S-adenosylmethionine decarboxylase (=SAMDC) inhibitors” (Novartis AG, priority 1995, dated 1998).
Where a name gives a salt, the structure may show the parent alone. Read-outs that look alike come from different tables or passages of the source.

How the values were obtained:
[1] = target: T1, S-adenosylmethionine decarboxylase (SAMDC) (Rattus norvegicus, UniProt P17708); assay: Inhibition of S-adenosylmethionine decarboxylase (SAMDC); format: biochemical; details: read-out: IC50, inhibition of the enzyme SAMDC
T1 sequence (P17708 68-333 limits assumed): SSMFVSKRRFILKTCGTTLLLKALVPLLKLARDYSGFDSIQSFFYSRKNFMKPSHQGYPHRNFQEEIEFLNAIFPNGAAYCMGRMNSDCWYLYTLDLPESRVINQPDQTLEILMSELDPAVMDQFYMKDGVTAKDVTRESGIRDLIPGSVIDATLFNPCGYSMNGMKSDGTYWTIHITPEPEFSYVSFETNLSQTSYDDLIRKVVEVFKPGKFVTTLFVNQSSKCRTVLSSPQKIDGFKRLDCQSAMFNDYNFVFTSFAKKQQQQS
T1 sequence (P17708 1-67 limits assumed): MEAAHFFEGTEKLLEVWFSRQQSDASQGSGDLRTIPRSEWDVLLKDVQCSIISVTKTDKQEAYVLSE

[2] = system: human T24 bladder carcinoma cells; assay: Inhibition of the growth of human T24 bladder carcinoma cells; format: cell-based; details: 120 h, 5 days incubation, concentration at half the maximum inhibition
Experimental: The carcinoma cells (1000-1500; ATCC HB 4) are transferred to 96-well microtitre plates and are incubated overnight under the said conditions. The test compound is added in serial dilutions on day 1. The plates are incubated under the said conditions for 5 days. During that period, control cultures undergo at least 4 cell divisions. After the incubation, the cells are fixed with 3.3% (weight/volume=w/v) aqueous glutaraldehyde solution, washed with water and stained with 0.05% (w/v) aqueous methylene blue solution. After washing, the dye is eluted with 3% (w/v) aqueous hydrochloric acid. The optical density (OD) per well, which is directly proportional to the number of cells, is then measured by means of a photometer (Titertek multiskan) at 665 nm. The IC50 values are calculated by means of a computer system using the formula [formula] The IC50 value is defined as the concentration of active ingredient at which the number of cells per well at the end of the incubation period is only 50% of the number of cells in the control cultures. The inhibition of the growth of human T24 bladder carcinoma cells is measured using the method mentioned hereinbefore. The following IC50 values (concentration of the test compound at half the maximum inhibition) are determined using the following Examples: […]

[3] = Maximum tolerable dose (MTD); design: species or system mice; details: mouse, in vivo, read-out: maximum tolerated dose
[4] = system: human T24 bladder cell carcinomas; assay: Inhibition of the growth of T24 bladder carcinoma cells in vivo (nude mouse); design: species or system human; BALB/c nude mice; details: for T/C on i.p. administration / T/C on p.o. administration: average for 6 animals
Experimental: W. Porter (see Cancer Res. 54, 3210-3217 (1994)). Briefly, the procedure is as follows: To determine the maximum tolerable dose (MTD), the compounds according to the invention (for example dissolved in distilled water/0.9% NaCl) are injected i.p. into three mice per group. The dose is increased until the first animals die within a period of 10 days. To determine the anti-tumor activity, for example, small pieces of human T-24 bladder carcinoma cells (ATCC HTB 4) are cultured and transplanted as xenogenic transplants ("xenografts") into female BALB/c nude mice (Bomholtgarden, Copenhagen, Denmark). The anti-tumor treatment using compounds of formula I is started after at least three successive transplants. Tumor fragments weighing approximately 25 mg are transplanted into the left flank of the mouse (n=6 per group). Treatment is started as soon as the tumors have an average tumor volume of from 150 to 200 mm^3. The growth of the tumors is determined twice weekly by measuring mutually perpendicular tumor diameters. The tumor volumes are determined in the manner described by U. Regenass, H. Mett, J. Stanek, M. Muller, D. Kramer and C. W. Porter (see Cancer Res. 54 3210-3217 (1994)) and are given as relative tumor size (i.e. increase in tumor volume relative to the tumor volume at the beginning of treatment) in T/C % (percent treated/control). The test compounds are dissolved in distilled water and diluted with 3 volumes of 0.9% (w/v) NaCl in water.
Using the method mentioned hereinbefore (see also Regenass et al., Cancer Res. 54, 3210-3217 ([…])), the compound of Example 2 of the present Application is administered in accordance with the following treatment scheme to BALB/c nude mice with transplanted human T24 bladder cell carcinomas: The compound is administered p.o. (50, 25 and 12.5 mg/kg) or i.p. (12.5, 6.25 and 3.13 mg/kg). The compound is dissolved in distilled water and diluted with 3 volumes of 0.9% NaCl (w/v) in water.

SMILES | IC50 [1] [nM] | IC50 [2] [nM] | also measured
N=C(N)c1cccc2c1CCC2=Nn1cc(-c2ccccc2)nc1N [Example 2, 1-[4-(Amidino)-2,3-dihydro-1H-inden-1: -ylideneamino]-2-amino-4-phenyl-imidazole dihydrochloride] | 2 | 1160 | MTD at 240 h ([3]; ip): 125 mg/kg; MTD at 240 h ([3]; po): > 500 mg/kg; T/C on i.p. administration ([4]; 3.13 mg/kg): 34%; T/C on i.p. administration ([4]; 6.25 mg/kg): 22%; T/C on i.p. administration ([4]; 12.5 mg/kg): 16%; growth of T24 bladder carcinoma cells in vivo (in words) ([4]; oral and intraperitoneal administration): inhibits the growth of T24 bladder carcinoma cells; dose-dependence of tumor growth inhibition ([4]; p.o. and i.p.): dose-dependence of the action is observed; T/C on p.o. administration ([4]; 12.5 mg/kg): 68%; T/C on p.o. administration ([4]; 25 mg/kg): 47%; T/C on p.o. administration ([4]; 50 mg/kg): 31%
COc1ccc(OC)c(-c2cn(N=C3CCc4c(C(=N)N)cccc43)c(N)n2)c1 [Example 8, 1-[4-(Amidino)-213-dihydro-1H-inden-1-ylideneamino]-2-amino-4-(2,5-di-methoxyphenyl)-imidazole dihydrochloride] | 8.9 | 1600 | 
COc1cccc(-c2cn(N=C3CCc4c(C(=N)N)cccc43)c(N)n2)c1 [Example 10, 1-[4-(Amidino)-2,3-dihydro-1 1H-inden-1-ylideneamino]-2-amino-4-(3-methoxyphenyl)-imidazole dihydrochloride] | 4.2 | 2600 | 
N=C(N)c1cccc2c1CCC2=Nn1cc(-c2ccc(Cl)cc2)nc1N [Example 12, 1-[4-(Amidino)-2,3-dihydro-1H-inden-1-ylideneamino]-2-amino-4-(4-chlorophenyl)-imidazole dihydrochloride] | 6.7 | 1550 | 
Cc1ccc(-c2cn(N=C3CCc4c(C(=N)N)cccc43)c(N)n2)cc1 [Example 14, 1-[4-(Amidino)-2,3-dihydro-1H-inden-1-ylideneamino]-2-amino-4-(4-tolyl)-imidazole dihydrochloride] | 3.4 | 1120 | 
N=C(N)c1cccc2c1CCC2=Nn1cc(-c2ccc(F)cc2)nc1N [Example 16, 1-[4-(Amidino)-2,3-dihydro-1H-inden-1-ylideneamino]-2-amino-4-(4-fluoro-phenyl)-imidazole dihydrochloride] | 4 | 2700 | 
CCc1cn(N=C2CCc3c(C(=N)N)cccc32)c(N)n1 [Example 18, 1-[4-(Amidino)-2,3-dihydro-1H-inden-1-ylideneamino]-2-amino-4-ethyl-imidazole dihydrochloride] | 6.1 | 1500 | 
N=C(N)c1cccc2c1CCC2=Nn1ccnc1N [Example 26, 1-[4-(Amidino)-2,3-dihydro-1H-inden-1-ylideneamino]-2-amino-imidazole dihydrochloride] |  | 2150 | 
CC(C)(C)c1ccc(-c2cn(N=C3CCc4c(C(=N)N)cccc43)c(N)n2)cc1 [Example 28, 1-[4-(Amidino)-2,3-dihydro-1H-inden-1-ylideneaminol-2-amino-4-(4-tert-butylphenyl)-imidazoledihydrochloride] | 5.4 | 230 | 

Second part, led by results:

IC50 [1] [nM] | IC50 [2] [nM] | SMILES | also measured
3.6 | 2000 | COc1ccc(-c2cn(N=C3CCc4c(C(=N)N)cccc43)c(N)n2)cc1 [Example 4, 1-[4-(Amidino)-2,3-dihydro-1H-inden-1-ylideneamino]-2-amino-4-(4-methoxvphenyl)-imidazole dihydrochloride] | 
8.4 | 1200 | COc1ccccc1-c1cn(N=C2CCc3c(C(=N)N)cccc32)c(N)n1 [Example 6, 1-[4-(Armidino)-2,3-dihydro-1H-inden-1-ylideneamino]-2-amino-4-(2-methoxyphenyl)-imidazole dihydrochloride] | 
3.4 | 280 | N=C(N)c1cccc2c1CCC2=NN1CCN=C1N [Example 20, 1-[4-(Amidino)-2,3-dihydro-1H-inden-1-ylideneamino]-2-amino-4,5-di-hydro-imidazole dihydrochloride] | 
11 | 440 | N=C(N)c1cccc2c1CCC2=Nn1cc(-c2ccc(-c3ccccc3)cc2)nc1N [Example 22, 1-[4-(Amidino)-2,3-dihydro-1H-inden-1-ylideneamino]-2-amino-4-(4-bi-phenylyl)-imidazole dihydrochloride] | 
7.5 | 2460 | N=C(N)c1cccc2c1CCC2=Nn1cc(-c2ccc3ccccc3c2)nc1N [Example 24, 1-[4-(Amidino)-2,3-dihydro-1H-inden-1-ylideneamino]-2-amino-4-(2-naphthyl)-imidazole dihydrochloride] | 
